US20170360795A1, “TREATMENT OF CANCERS USING PI3 KINASE ISOFORM MODULATORS” (INFINITY PHARMACEUTICALS, INC., priority 2013, published 2017)
“Also recorded” adds a separate entry of the source. Marks after values point to notes of the source that are not given here.

Columns and labels:
[1] = tested on: serum cytokines/chemokines; assay: serum cytokines/chemokines of patients by Milliplex immuno-assay; type: in vivo, human
Procedure: Serum concentrations of a panel of human cytokines/chemokines were determined by Milliplex 96-well immuno-assay as described below.
the blood was allowed to clot for at least 30 minutes before centrifugation for 10 minutes at 1000×g. Serum was removed and either assayed immediately or aliquoted and stored at ≦−20° C. When using frozen samples, it is recommended to thaw the samples completely, mix well by vortexing and centrifuge prior to use in the assay to remove particulates.
1.0 mL deionized water was added to the bottle containing lyophilized Serum Matrix (catalog number MX HSM from MILLIPLEX® Map), and was allowed to be mixed will for at least 10 minutes for complete reconstitution.
200 μL of wash buffer was added into each well of the plate. The plate was sealed and mixed on a plate shaker for 10 minutes at room temperature (20-25° C.). The wash buffer was decanted and the residual amount was removed from all wells by inverting the plate and tapping it smartly onto absorbent towels several times. 25 μL of each standard or control was added into the appropriate wells. Assay buffer was used for 0 pg/mL standard (Background). 25 μL of assay buffer was added to the sample wells. 25 μL of appropriate matrix solution was added to the background, standards, and control wells. 25 μL of serum sample was added into the appropriate wells. 25 μL of the mixed or premixed Beads for the tested cytokines/chemokines was added to each well. The plate was sealed with a plate sealer, wrapped with foil and incubated with agitation on a plate shaker overnight at 4° C. or 2 hours at room temperature (20-25° C.). An overnight incubation (16-18 hr) may improve assay sensitivity for some analytes. […]
The plate was run on Luminex 200™, HTS, FLEXMAP 3D™ or MAGPIX® with xPONENT software. The Median Fluorescent Intensity (MFI) data was saved and analyzed using a 5-parameter logistic or spline curve-fitting method for calculating cytokine/chemokines concentrations in samples.
The serum analytes examined included: (1) human cytokines/chemokinds (EGF, CCL11, FGF-2, Flt-3 ligand, CX3CL1, G-CSF, GM-CSF, CXCL1, CXCL10, IFNα2, IFNγ, IL-α, IL-β, IL-1ra, IL-2, sIL-2Rα, IL-3, IL-4, IL-5, IL-6, IL-7, IL-8, IL-9, IL-10, IL-12 (p40), IL-12 (p70), IL-13, IL-15, IL-17, IL-1ra, IL-1α, IL-13, IL-2, IL-3, CCL2, CCL7, CCL22, CCL3, CCL4, PDGF-AA, PDGF-AB/BB, CCL5, sCD40L, sIL-2Rα, TGFα, TNFα, TNFβ, VEGF, CCL21, CXCL13, CCL27, CXCL5, CCL24, CCL26, CCL1, IL-16, IL-20, IL-21, IL-23, IL-28, IL-33, LIF, CCL8, CCL13, CCL15, SCF, CXCL12, CCL17, TPO, TRAIL, and TSLP); and (2) matrix metaloproteinases (MMP-1, MMP-2, MMP-3, MMP-7, MMP-9, MMP-10, MMP-12, MMP-13, TIMP-1, and TIMP-2). The change in serum concentration of an analyte was determined by comparing the pre- and post-treatment serum samples.

serum biomarkers = assay: Serum biomarkers in patients, 28 day cycles; type: in vivo, human
migration of CLL cells = assay: chemotaxis assay; type: cell-based; conditions: n=8
From the text: (FIGS. 35 and 36). […] In addition, this direct inhibitory effect on CLL cells in the lymph nodes could lead to rapid and prolonged responses in cancer patients.

Ri-1 = assay: cellular growth inhibition assay (72 hour CTG), DLBCL; type: cell-based; conditions: Ri-1 (ABC)
[2] = embryo/fetal developmental toxicity study in rabbits; conditions: female, rabbit, in vivo, 75 mg/kg/day; pregnant rabbits, last day of dosing; read-out: mean AUCO24 hr at the NOAEL
[3] = clinical study in healthy adult subjects: safety; type: in vivo, human
[4] = tested on: CD63 expression on CCR3+ basophils; assay: ex vivo anti-FcεR1 basophil activation assay, healthy subjects; type: in vivo, human; conditions: single and multiple doses
hematologic malignancies = assay: Phase 1 dose-escalation study in hematologic malignancies: tumor response; type: in vivo, human; conditions: for responses: 8, 15 and 25 mg BID
[5] = in vivo rat micronucleus assay
[6] = multiple doses for 2 weeks (n=36)

Compound: C[C@H](Nc1ncnc2[nH]cnc12)c1cc2cccc(Cl)c2c(=O)n1-c1ccccc1 [Compound 292]
- serum levels of CXCL13, CCL3, CCL4, CCL17, CCL22, TNFα and IL-12 (p40) ([1]; CLL patients, 25 mg BID, C1D8 and C2D1 vs C1D1 predose): substantially reduced
- serum concentrations of CXCL13, CCL4, CCL17, CCL22 and TNF-α ([1]; CLL/SLL and iNHL/MCL/FL patients): decreased serum concentrations
- serum levels of CXCX13, CCL17, CCL22 and TNFα ([1]; iNHL patients, 28 days cycle, 25 mg BID): significant reduction
- serum levels of CXCL13, CCL17 and MMP-9 ([1]; lymphoma patients, 25 mg BID, C1D8 and C2D1 vs C1D1): substantially reduced
- levels of CLL biomarkers in serum (serum biomarkers; 25 mg BID): decrease
- levels of T-cell lymphoma biomarkers in serum (serum biomarkers; 25 mg BID): decrease
- levels of iNHL biomarkers in serum (serum biomarkers; 25 mg BID): decrease
- levels of lymphoma biomarkers in serum (serum biomarkers; 25 mg BID): decrease
- levels of CLL biomarkers in serum (serum biomarkers; 25 mg or 75 mg BID): decrease
- levels of iNHL biomarkers in serum (serum biomarkers; 25 mg or 75 mg BID): decrease
- reduction in migration of CLL cells, % control reduction, range (migration of CLL cells): 2-42%
- sensitivity in cellular growth inhibition assay (Ri-1): more sensitive; also recorded: nanomolar (nM) range
- AUC [2]: 66200 ng·h/mL
- deaths and serious adverse events (SAEs) ([3]; healthy subjects): no deaths and no serious adverse events
- headache (non-procedural AE) [3, 6]: 8%
- myalgia (non-procedural AE) [3, 6]: 6%
- nasopharyngitis (non-procedural AE) [3, 6]: 6%
- largest change from baseline in QTcF ([3]; serial ECGs, all study groups): 37 ms
- subjects with QTcF greater than 500 msec ([3]; serial ECGs, all study groups): No subject
- tolerability ([3]; single doses up to 30 mg, multiple doses up to 10 mg daily for 14 days): well tolerated; also recorded: well-tolerated
- time of maximum reduction of basophil activation [4]: 1 hr post dose
- reduction of basophil activation (CD63 expression) ([4]; all dose levels): dose-dependent reduction; also recorded: reduced in a dose-dependent manner
- responders with response by first assessment (within about 2 months) (hematologic malignancies; B cell lymphoma, 16 out of 18 responders): 89%
- Time to Response in Months Median (range) (hematologic malignancies; CLL/SLL (11 evaluable)): 2.9 (1.8, 5.6) Months
- Best Observed Response: SD (hematologic malignancies; CLL/SLL (11 evaluable), four nodal responses): 4 ^c n
- responses (hematologic malignancies; CLL/SLL): 2/3
- Median Time to Response in Months (range) (hematologic malignancies; CTCL (T/E 10/4)): 1.7 (—) ^ Months
- Time to Response in Months Median (range) (hematologic malignancies; HL (2 evaluable)): 1.7 (1.7, 1.7) Months
- Median Time to Rsp in Months (Range) (hematologic malignancies; HL (T/E 3/3)): 1.7 Months
- Time to Response in Months Median (range) (hematologic malignancies; MCL (3 evaluable)): 1.9 (1.9, 1.9) Months
- Median Time to Rsp in Months (Range) (hematologic malignancies; MCL (T/E 9/6)): 1.8 (1.6-1.9) Months
- Median Time to Response in Months (range) (hematologic malignancies; PTCL (T/E 7/5)): 2.3 (1.9-2.7) Months
- patients with at least 50% tumor response (CT scans) (hematologic malignancies; T cell lymphoma (2 PTCL and 1 CTCL)): 33%
- Time to Response in Months Median (range) (hematologic malignancies; T-Cell Lymphoma (6 evaluable)): 2.4 (1.8, 3.1) Months
- Median Time to Response in Months (range) (hematologic malignancies; TCL Total (T/E 17/9)): 1.9 (1.7-2.7) Months
- Time to Response in Months Median (range) (hematologic malignancies; iNHL (13 evaluable)): 1.8 (1.7, 2.8) Months
- Median Time to Rsp in Months (Range) (hematologic malignancies; iNHL (T/E 26/19)): 1.8 (1.7-4.1) Months
- responses (hematologic malignancies; iNHL): 1/2
- direct adverse effect in micronucleus assay [5]: no direct adverse effect
